Test results taken from patent US9949465B2, “Atopic dermatitis model animal and use thereof” (HYOGO COLLEGE OF MEDICINE, priority 2013, dated 2018).
Where a name gives a salt, the structure may show the parent alone.

Tests used:
[1] = tested on: hK14mIL33tg mice; assay: Scratching behavior (skin scratching time) in hK14mIL33tg mice; type: in vivo, mouse
Method: Skin scratching time (sec/min) in any 20 min of wild-type mice (WT) and hK14mIL33tg mice (Tg) was measured. […] Furthermore, an effect of anti-histamine drugs on the scratching behavior was verified. Diphenhydramine hydrochloride (2 mg) was intraperitoneally administered to hK14mIL33tg mice. As a result, the scratching time of mice observed in 20 min from 6 min after the administration decreased from average 4.6 min to average 0.2 min (FIG. 19).

[2] = tested on: hK14mIL33tg mice; assay: Rash score of hK14mIL33tg mice after application to rash site; type: in vivo, mouse
Method: Each item can be measured by a known method, or according to the below-mentioned Examples. For example, as for the rash score, 5 items of pruritus, erythematous plaque/bleeding, edema, epidermis detachment/erosion, and desquamation/drying are evaluated and rated as absent (0 point), mild (1 point), moderate (2 points), and severe (3 points), and the total points are used for measurement (Matsuda H et al., Int. Immunol, 9(3):461-466, 1997). As for the number of inflammatory cells, for example, cells derived from skin tissue, peripheral blood or lymph node are analyzed by flow cytometry, and the ratio thereof can be measured. The inflammatory cells include eosinophils, neutrophils, basophils, mast cells, type 2 innate lymphoid cells and the like, preferably eosinophils, mast cells and type 2 innate lymphoid cells. The total IgE concentration, histamine concentration, cytokine concentration and chemokine concentration can be measured by ELISA using each antibody. As used herein, cytokine is preferably IL-5 or IL-13. […]
An effect of steroid drug on scratching behavior of hK14mIL33tg mice was verified. […] As rash scores, 5 items of pruritus, erythematous plaque/bleeding, edema, epidermis detach/erosion, and desquamation/drying were evaluated into absent (0 point), mild (1 point), moderate (2 points), and severe (3 points) (Matsuda H et al., Int. Immunol, 9(3):461-466, 1997). […]

SMILES | scratching time after administration ([1]; 2 mg intraperitoneally, observed in 20 min from 6 min after the administration, average, n=3, before administration average 4.6 min) | scratching time (result in words) ([1]; hK14mIL33tg (Tg) mice, increased scratching time vs wild-type) | total points of rash score after application ([2]; applied to rash site 5 times every 2 days, average, n=4, before application average 12.3 points, 5 items scored 0-3) | rash score (result in words) ([2]; hK14mIL33tg (Tg) mice)
CN(C)CCOC(c1ccccc1)c1ccccc1 [Diphenhydramine hydrochloride] | 0.2 min | could reduce |  | 
CCCC(=O)O[C@]1(C(=O)COC(=O)CC)[C@@H](C)C[C@H]2[C@@H]3CCC4=CC(=O)C=C[C@]4(C)[C@@]3(F)[C@@H](O)C[C@@]21C [betamethasone butyrate propionate] |  |  | 4.8 points | could reduce
